From PubChem BioAssay AID248 (DTP/NCI, 2004)
Values joined by “and” are separate entries in the source; they are usually repeats but may differ in a detail not shown here. Equal values may be shown once. Toxic doses and inconclusive results are not listed. Rule as the data show it: active = T/C of 150% or more; inactive = T/C below 125%.

Tested on: L1210 leukemia ip in BDF1 mice, survival T/C
Assay: NCI In Vivo Anticancer Drug Screen. Data for tumor model L1210 Leukemia (intraperitoneal) in B6D2F1 (BDF1) mice
Settings: endpoint: mean survival time, higher = longer survival
In short: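 Transplantable tumor model; survival measured in treated vs vehicle control mice. Value = treated/control.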

[1] = dose: 100.0 mg/kg/injection, schedule: Q01DX001 (ip), vehicle: saline with Tween-80
[2] = dose: 100.0 mg/kg/injection, schedule: Q01DX009 (ip), vehicle: saline with Tween-80
[3] = dose: 100.0 mg/kg/injection, schedule: Q04DX002 (ip), vehicle: saline with Tween-80
[4] = dose: 100.0 mg/kg/injection, schedule: Q04DX003 (ip), vehicle: saline with Tween-80
[5] = dose: 200.0 mg/kg/injection, schedule: Q01DX001 (ip), vehicle: saline with Tween-80
[6] = dose: 200.0 mg/kg/injection, schedule: Q01DX009 (ip), vehicle: saline with Tween-80
[7] = dose: 200.0 mg/kg/injection, schedule: Q04DX002 (ip), vehicle: saline with Tween-80
[8] = dose: 200.0 mg/kg/injection, schedule: Q04DX003 (ip), vehicle: saline with Tween-80
[9] = dose: 400.0 mg/kg/injection, schedule: Q04DX002 (ip), vehicle: saline with Tween-80
[10] = dose: 400.0 mg/kg/injection, schedule: Q04DX003 (ip), vehicle: saline with Tween-80
[11] = dose: 50.0 mg/kg/injection, schedule: Q01DX001 (ip), vehicle: carboxymethylcellulose (CMC)
[12] = dose: 100.0 mg/kg/injection, schedule: Q01DX001 (ip), vehicle: carboxymethylcellulose (CMC)
[13] = dose: 200.0 mg/kg/injection, schedule: Q01DX001 (ip), vehicle: carboxymethylcellulose (CMC)
[14] = dose: 400.0 mg/kg/injection, schedule: Q01DX001 (ip), vehicle: carboxymethylcellulose (CMC)
[15] = dose: 100.0 mg/kg/injection, schedule: Q01DX001 (ip), vehicle: saline
[16] = dose: 200.0 mg/kg/injection, schedule: Q01DX001 (ip), vehicle: saline
[17] = dose: 400.0 mg/kg/injection, schedule: Q01DX001 (ip), vehicle: saline
[18] = dose: 100.0 mg/kg/injection, schedule: Q01DX009 (ip), vehicle: Klucel (hydroxypropylcellulose) (HPC)
[19] = dose: 100.0 mg/kg/injection, schedule: Q04DX003 (ip), vehicle: Klucel (hydroxypropylcellulose) (HPC)
[20] = dose: 200.0 mg/kg/injection, schedule: Q04DX003 (ip), vehicle: Klucel (hydroxypropylcellulose) (HPC)
[21] = dose: 400.0 mg/kg/injection, schedule: Q04DX003 (ip), vehicle: Klucel (hydroxypropylcellulose) (HPC)
[22] = dose: 50.0 mg/kg/injection, schedule: Q01DX009 (ip), vehicle: saline with Tween-80

Measured: T/C

COc1ccccc1NC(=O)Nc1ccc(S(N)(=O)=O)cc1
inactive: [1] 97 % of control | [2] 101 % of control and 106 % of control | [3] 98 % of control and 103 % of control | [4] 94 % of control | [5] 111 % of control | [6] 98 % of control and 116 % of control | [7] 104 % of control | [8] 90 % of control | dose: 400.0 mg/kg/injection, schedule: Q01DX001 (ip), vehicle: saline with Tween-80 97 % of control | dose: 400.0 mg/kg/injection, schedule: Q01DX009 (ip), vehicle: saline with Tween-80 97 % of control and 98 % of control | [9] 95 % of control | [10] 100 % of control

CC(C)CP(=O)(CC(C)C)C1CCCC1
inactive: [1] 100 % of control | [5] 105 % of control

O=C(c1ccc([N+](=O)[O-])cc1)C1NC1c1ccccc1 (configuration not stated)
inactive: [11] 91 % of control | [12] 97 % of control | [13] 100 % of control | [14] 91 % of control

O=c1cc(CC(O)(c2ccccc2)c2ccccc2)cc[nH]1
inactive: [15] 100 % of control | [16] 95 % of control | [17] 100 % of control

Oc1ccc2ccccc2c1N=Nc1ccccn1
inactive: dose: 25.0 mg/kg/injection, schedule: Q04DX002 (ip), vehicle: saline with Tween-80 101 % of control | dose: 50.0 mg/kg/injection, schedule: Q04DX002 (ip), vehicle: saline with Tween-80 98 % of control | [3] 95 % of control

O=[N+]([O-])c1cc(Br)c(N2CCCC2)cc1N1CCCC1
inactive: [18] 106 % of control | [19] 104 % of control | dose: 200.0 mg/kg/injection, schedule: Q01DX009 (ip), vehicle: Klucel (hydroxypropylcellulose) (HPC) 106 % of control | [20] 93 % of control | dose: 400.0 mg/kg/injection, schedule: Q01DX009 (ip), vehicle: Klucel (hydroxypropylcellulose) (HPC) 98 % of control | [21] 88 % of control

Cc1cc(NCC(=O)NN)ccc1Cl
inactive: dose: 50.0 mg/kg/injection, schedule: Q04DX002 (ip), vehicle: Klucel (hydroxypropylcellulose) (HPC) 103 % of control | dose: 100.0 mg/kg/injection, schedule: Q04DX002 (ip), vehicle: Klucel (hydroxypropylcellulose) (HPC) 104 % of control and 114 % of control | dose: 200.0 mg/kg/injection, schedule: Q04DX002 (ip), vehicle: Klucel (hydroxypropylcellulose) (HPC) 86 % of control

C/C=C/SC(=Nc1ccccc1)Nc1ccccc1
inactive: dose: 100.0 mg/kg/injection, schedule: Q01DX001 (ip), vehicle: Klucel (hydroxypropylcellulose) (HPC) 96 % of control | dose: 200.0 mg/kg/injection, schedule: Q01DX001 (ip), vehicle: Klucel (hydroxypropylcellulose) (HPC) 94 % of control | dose: 400.0 mg/kg/injection, schedule: Q01DX001 (ip), vehicle: Klucel (hydroxypropylcellulose) (HPC) 98 % of control

CNC(=O)CS(=O)(=O)c1ccc(C)cc1
inactive: [15] 97 % of control | [16] 95 % of control | [17] 93 % of control

O=[As](O)(CC(O)COc1ccc(Cl)cc1Cl)c1ccc(Cl)cc1 (configuration not stated)
inactive: dose: 6.25 mg/kg/injection, schedule: Q01DX001 (ip), vehicle: saline with Tween-80 105 % of control | dose: 12.5 mg/kg/injection, schedule: Q01DX001 (ip), vehicle: saline with Tween-80 98 % of control | dose: 25.0 mg/kg/injection, schedule: Q01DX001 (ip), vehicle: saline with Tween-80 98 % of control | [1] 91 % of control

CC(C)COC(=O)COc1ccccc1
inactive: [4] 104 % of control | [8] 104 % of control | [10] 86 % of control

O/N=C/C=N/O.O/N=C/C=N/O.[Pd]
inactive: dose: 1.56 mg/kg/injection, schedule: Q01DX009 (ip), vehicle: saline with Tween-80 110 % of control | dose: 3.13 mg/kg/injection, schedule: Q01DX009 (ip), vehicle: saline with Tween-80 97 % of control | dose: 6.25 mg/kg/injection, schedule: Q01DX009 (ip), vehicle: saline with Tween-80 112 % of control

CC1(C)N=C(N)N=C(N)N1c1cccc(CC(=O)Nc2ccc(S(=O)(=O)F)cc2)c1
inactive: dose: 0.8 mg/kg/injection, schedule: Q01DX009 (ip), vehicle: saline 101 % of control | dose: 4.0 mg/kg/injection, schedule: Q01DX009 (ip), vehicle: saline 100 % of control | dose: 20.0 mg/kg/injection, schedule: Q01DX009 (ip), vehicle: saline 110 % of control | dose: 25.0 mg/kg/injection, schedule: Q01DX009 (ip), vehicle: Klucel (hydroxypropylcellulose) (HPC) 108 % of control | dose: 25.0 mg/kg/injection, schedule: Q01DX009 (ip), vehicle: saline with Tween-80 103 % of control | dose: 50.0 mg/kg/injection, schedule: Q01DX009 (ip), vehicle: Klucel (hydroxypropylcellulose) (HPC) 113 % of control | [22] 100 % of control | dose: 88.0 mg/kg/injection, schedule: Q01DX009 (ip), vehicle: saline with Tween-80 102 % of control | [18] 109 % of control | dose: 100.0 mg/kg/injection, schedule: Q01DX009 (ip), vehicle: saline 117 % of control | dose: 132.0 mg/kg/injection, schedule: Q01DX009 (ip), vehicle: saline with Tween-80 121 % of control | dose: 150.0 mg/kg/injection, schedule: Q01DX009 (ip), vehicle: Klucel (hydroxypropylcellulose) (HPC) 105 % of control | dose: 300.0 mg/kg/injection, schedule: Q01DX009 (ip), vehicle: saline with Tween-80 89 % of control

CNC(=O)Oc1cccc(C(F)(F)F)c1
inactive: [12] 90 % of control | [13] 98 % of control | [14] 92 % of control

O=P(CCCl)(OCCCl)OCCCl
inactive: [4] 94 % of control | [8] 109 % of control | [10] 109 % of control

COC(=O)c1nc2c(N)nc(-c3ccccc3)nc2nc1N
inactive: [19] 103 % of control | [20] 98 % of control | [21] 106 % of control

COc1ccccc1CC(C)(C)O
inactive: [22] 98 % of control | [2] 95 % of control | [6] 101 % of control

CCC/C=C(/CC(=O)O)C(=O)O
inactive: dose: 100.0 mg/kg/injection, schedule: Q04DX003 (ip), vehicle: saline 95 % of control | dose: 200.0 mg/kg/injection, schedule: Q04DX003 (ip), vehicle: saline 100 % of control | dose: 400.0 mg/kg/injection, schedule: Q04DX003 (ip), vehicle: saline 97 % of control

O=c1n(-c2ccccc2)c(=O)n(-c2ccccc2)c(=O)n1-c1ccccc1
inactive: [15] 107 % of control | [19] 89 % of control | [16] 102 % of control | [20] 94 % of control | [17] 115 % of control | [21] 104 % of control

CC1c2ncnc(N)c2CN1C(=O)c1ccccc1 (configuration not stated)
inactive: [12] 98 % of control | [13] 98 % of control

O=C(N/N=C/c1ccccc1Cl)C(O)C(O)C(O)C(O)CO (configuration not stated)
inactive: [3] 112 % of control | [7] 94 % of control | [9] 94 % of control

OC1c2ccccc2C(O)C2C3C=CC(CC3)C12 (configuration not stated)
inactive: [11] 93 % of control | [12] 98 % of control | [13] 98 % of control | [14] 98 % of control
